The results in this text go back to PMC2676897 (Bioorganic & medicinal chemistry letters, 2009).

Data set [1] relates to ATCC MCF7 cells (ERα expressing). In words: Inhibition of E2-induced proliferation, MTS assay, ATCC MCF7 expressing only ERα. The data set is classed as cell-based, human. The conditions noted are these: 1 nM E2, 6 days.
A further data set has as its system MDA-MB231 cells. Briefly: Growth inhibition of ER-negative MDA-MB231 cells, MTS assay. The conditions noted are these: for growth inhibitory activity: ER-negative MDA-MB231 cells, 72 h, MTS; for toxicity to cells: MDA-MB231 cells, 25 μM. On the technique in general: Tetrazolium assays rely on reduction of a dye to a coloured formazan, in cell work by metabolically active cells.

For `CCCC[C@@H]1C[C@H]1[C@@H](NC(=O)c1ccccc1)c1ccc(-c2ccc(O)cc2)cc1F` [Compound 11b], the “GI50, inhibition of E2-induced proliferation” value in data set [1] was “did not demonstrate inhibition”. Besides, in the data set on MDA-MB231 cells, the growth inhibitory activity entry is listed as “did not demonstrate significant growth inhibitory activity” and the toxicity to cells result is “toxicity”.

With `O=C(c1ccc(OCCN2CCCCC2)cc1)c1c(-c2ccc(O)cc2)sc2cc(O)ccc12` [RAL, Raloxifene, reference compound], in the data set with MDA-MB231 cells, the growth inhibitory activity result was “did not demonstrate significant growth inhibitory activity” and the toxicity to cells entry was “toxicity”.

Take `CCCC[C@@H]1C[C@H]1[C@@H](N)c1ccc(-c2ccc(O)cc2)cc1F.Cl` [Compound 13]: in the data set on MDA-MB231 cells, the growth inhibitory activity entry is “did not demonstrate significant growth inhibitory activity” and the toxicity to cells entry is “toxicity”.
